# Key:
# [1] = tested on: islets from ob/ob mice lacking UCP2; test: Glucose-stimulated insulin secretion in islets from ob/ob mice lacking UCP2; format: cell-based; settings: 5 μM genipin, FIG. 12C
# Method: Pancreatic islets were isolated from WT (FIG. 12A) or UCP2 KO mice (FIG. 12B) and subjected to chronic incubations at low (5.5 mM) and high glucose (25 mM). In a separate experiment, islets were isolated from ob/ob mice (FIG. 12C). Islets were incubated for a total of 72 hours and washed, and then insulin-secretion studies were performed using three different concentrations of glucose (5.5, 12.5, and 25 mM) with or without 5 μM genipin. Results are means±SEM of four independent experiments (FIGS. 12A and 12B) or eight to twenty repeats of one representative experiment (FIG. 12C). WT islets that were chronically incubated at low glucose released increasing amounts of insulin in response to increasing concentrations of glucose (FIG. 12A, left panel). Following chronic hyperglycemia, islets increased basal insulin release, but were completely unresponsive to glucose stimulation (FIG. 12A, middle panel). […] To assess the role of genipin in hyperglycemia-induced loss of glucose responsiveness, genipin was acutely added into islets during the insulin-release phase of the study. […] Insulin secretion in islets from ob/ob mice and ob/ob mice lacking UCP2 with or without genipin was also studied. It has been reported that in ob/ob islets, UCP2 expression levels are increased compared to WT islets. […]
# [2] = tested on: pancreatic islets from wildtype mice; test: Insulin secretion in isolated pancreatic islets from wildtype mice; format: cell-based; settings: 5.5 mM glucose; 50 nM, 0.5 μM and 5 μM genipin; 37° C. for 60 min; WT islets; FIG. 4 / FIG. 11B
# Method: As used or herein, pancreatic islets from wildtype and UCP2 knockout mice were isolated according to a method used for rats (Cawthorn and Chan, Mol. Cell. Endocrinol. 1991, 75:197-204, the entire teachings of which are incorporated herein by reference), except that the total exposure to type XI collagenase (Worthington Biochemical Co., NJ) was 30 min. and the Ficoll gradient was altered to layers of 25%, 23%, 21%, and 11%. Islets were harvested from the 11%-21% interface.
# Islets were cultured in RPMI medium containing 11.0 mM glucose and supplemented with 1% penicillin-streptomycin. 7.5% fetal bovine serum (all from Gibco/BRL, Burlington, ON), and 10 mM Hepes (Sigma). After culturing for 20-24 hr, the islets were transferred to microcentrifuge tubes, pelleted (800 g for 5 min), and the medium aspirated and replaced with 1.0 mL DME medium containing 1% gelatin and 5.5 mM glucose with no genipin (control), 50 nM genipin, 0.5 μM genipin, and 5 μM genipin. For insulin secretion studies, the three islets were incubated per tube. After incubation at 37° C. for 60 min., the islets were centrifuged. The supernatant was collected and stored at −80° C., and then later assayed for insulin using Rat Insulin ELISA Kit (Cat. No. INSKR020, Crystal Chem., Inc., Chicago, Ill.).
# FIGS. 11B and 11C show their effects on insulin secretion. Pancreatic islets were isolated from WT or UCP2 knockout (KO) mice. […]
# [3] = tested on: high fat diet-fed wildtype mice; test: Blood glucose and insulin after genipin injection in high fat diet-fed wildtype mice; format: in vivo; settings: high fat diet 24 weeks, 20 hours fasting, 300 μg genipin injected, thirty minutes after injection
# Method: Wildtype and UCP2 knockout mice were placed on a high fat diet obtained from Research Diets Inc., New Brunswick, N.J. (cat. no. D12331, HFD). The fat source was coconut oil and comprised 58% of the total calories. The mice remained on the high fat diet for 24 weeks. After the 24 weeks, both the wildtype and the UCP2 knockout mice were obese (about 50-60 g). After 20 hours of fasting, the blood glucose and insulin levels of the mice were measured, then the mice were injected with 300 μg of genipin. Thirty minutes after injection the blood glucose and insulin levels of the mice were measured again. Blood glucose levels were assessed using a glucometer (One touch, Lifescan, Milpitas, Calif.). Serum insulin concentrations were assessed using mouse insulin as a standard (Rat Insulin ELISA Kit. cat. #INSKR020 Crystal Chem. Inc., Chicago, Ill.). […] A comparison of the effect of genipin on the blood glucose levels and insulin levels in wildtype and UCP2 knockout mice can be seen in FIGS. 7 and 10, respectively.
# [4] = tested on: WT mice on chow diet, WT mice on high fat diet, ob/ob mice; test: Serum insulin in vivo after genipin injection in WT (chow, HFD) and ob/ob mice; settings: WT chow (6 hours fasting, 10 mg/kg), WT HFD (20 hours fasting, 10 mg/kg), ob/ob (20 hours fasting, 20 mg/kg); injected; FIGS. 13A-C
# Method: UCP2-deficient mice have increased serum insulin levels. Genipin inhibits UCP2 activity, and thus should stimulate insulin secretion acutely in vivo. In the present study, the effect of genipin on insulin secretion in vivo was assessed. WT and UCP2 KO mice were fed a chow diet (FIG. 13A), or placed on a high fat diet (HFD) (FIG. 13B) (#D12331, obtained from Research Diets Inc., New Brunswick, N.J.). The fat source was coconut oil and comprised 58% of the total calories. The mice remained on the HFD for 24 weeks. Both WT and KO mice were obese (50-60 g). ob/ob mice (FIG. 13C) were obtained from The Jackson Laboratory. After 6 hours (FIG. 13A) or 20 hours (FIGS. 13B and 13C) of fasting, genipin (10 mg/kg (FIGS. 13A and 13B), or 20 mg/kg (FIG. 13C)) was injected into the mice. Serum insulin levels were measured before and after administration of genipin as indicated.
structure (smiles),measurement,setting,value
COC(=O)C1=CO[C@@H](O)[C@@H]2C(CO)=CC[C@H]12 [genipin],glucose sensing (glucose-stimulated insulin secretion),[1],did not improve glucose sensing above the level seen in islets lacking UCP2 alone
same,insulin secretion,[2],increases insulin secretion in a dose-dependent manner
same,blood glucose levels,[3]; FIG. 5,significantly lowered blood glucose
same,blood insulin levels,[3]; FIG. 8,dramatically increase the blood insulin levels
same,serum insulin levels,[4],can increase insulin levels in all three animal models
